# Results taken from patent publication US6025365A, “Chelerythrine and radiation combined tumor therapy” (Arch Development Corp., priority 1997, dated 2000).
# Tests used:
# [1] = tested on: neutral sphingomyelinase; assay: Mixed micellar assay, neutral sphingomyelinase activity in treated SQ-20B cells; format: cell-based, human; conditions: 5 μM chelerythrine 30 minutes then 10 Gy; within 5 minutes of IR
# Protocol: FIG. 5A. […] The mixed micellar assay for sphingomyelinase activity was used to quantitate increased enzymatic activity.
# The mixed micellar sphingomyelinase assay using ^[14] C labeled sphingomyelin was performed as described (Wiegmann et al., 1994) with minor modifications as described herein. Exponentially growing cells 2×10^7 were treated, collected, and lysed in 200 μl of neutral buffer (20 mM Hepes, pH 7.4; 10 mM MgCl2, 2 mM EDTA, 5 mM DTT, […], 10 mM b-glycerolphosphate, 750 μM ATP, 1 mM PMSF, Leupeptin, Pepstatin, 2% Triton X-100) or an acid buffer (pH=5.5, 2% Triton X-100, 1 mM PMSF, Leupeptin, Pepstatin). After incubation for 5 minutes at 4° C., cells were homogenized by sonication and cell debris were removed by low speed centrifugation (800×g). The protein concentration was measured using the BioRad protein assay system (BioRad). Protein (50 μg) was incubated for 2 hours at 37° C. in a buffer (1 ml final volume) containing 20 mM HEPES, 1 mM MgCl2, and 0.9 μl [N-methyl-^14 C sphingomyelin].
# [2] = tested on: SQ-20B xenografts; assay: Growth of SQ-20B tumor xenografts in nude mice; format: in vivo, nude mice (human tumor xenograft)
# Protocol: FIG. 6. The SQ-20B xenograft system was used to assess the therapeutic efficacy of the combined treatment modality over 30 days. Forty animals (n=40) were treated in each group and the % mean tumor growth was determined for all animals. Calipers were used to measure tumor growth.
# SQ-20B (1-5×10^6) tumor cells were injected into the right hind limbs of nude mice (Fredrick Cancer Research Institute). Xenografts were grown for 2-3 weeks to a mean tumor volume of […]. At day 0, initial tumor volume was determined by direct measurement with calipers. During treatment tumor volumes were measured with calipers twice weekly and represented as percent of original tumor volume. Tumor volumes were calculated by the formula (a×b×c/2) which was derived from that for an ellipsoid (d3/6). Tumor cure was defined as regression to a volume of <10% of original size since, at this volume, it is impossible to differentiate residual tumor from scar tissue. Xenografts were injected with 2 mg/kg chelerythrine chloride on days 0, 3, 7 and 10. Irradiated mice were immobilized in lucite chambers and the entire body was shielded with lead except for the tumor bearing hind limb 14. Tumors were irradiated (5 Gy/day, 4 days/week) to a total dose of 50 Gy using a Maxitron generator (1.88 Gy/min.). Tumors were treated with radiation alone, chelerythrine alone, and buffer or chelerythrine combined with radiation. Data were calculated as the percent of original (day 0) tumor volume and graphed as fractional tumor volume±SEM.
# Radiation was delivered at 5 Gy/day, 4 days per week, for a total of 50 Gy.
# [3] = Acute lethality / tolerability in mice
# [4] = tested on: WEHI-231 cells; assay: Sphingomyelin mass by lipid extraction / TLC; format: cell-based, murine; conditions: 10 μM chelerythrine, 60 minutes
# Protocol: FIG. 7A. Inhibition of PKC causes an increase in ceramide production through the activation of a neutral sphingomyelinase and decreases in sphingomyelin levels. Ceramide production was quantitated using the DAG kinase assay for WEHI-231 JM cells and total lipid extraction was used to assay sphingomyelin mass. Following addition of 10 μM chelerythrine, cells were lysed at the appropriate time points as described herein. Each data point represents the average percentage change in ceramide or sphingomyelin generation from baseline derived from at least 8 independent studies for all time points with the exception of those marked with * (n=4). Standard deviations depicted by error bars.
# FIG. 7B. […] Ceramide production and sphingomyelin mass was quantitated identical to that for chelerythrine. Cells were lysed 2 hours following the addition of 250 nM calphostin C. […]
# Cells were prelabeled with [^3 H] palmitate (10 μCi/ml) for 24 hours to isotopic equilibrium in 15 ml glass tubes to minimize changes in cellular ceramide and sphingomyelin due to handling and changing of media (Borchardt et al., 1994). […] Autoradiographs were quantitated using an Epson 1200 c 30 bit scanner and NIH Image software (public domain program developed at the NIH and available from the Internet via FTP from zippy.nimh.nih.gov). […]
# [5] = tested on: SQ-20B xenografts; assay: Histology of SQ-20B xenografts; format: in vivo, nude mice (human tumor xenograft); conditions: combined x-ray and chelerythrine vs IR
# Protocol: Tumors were injected once or twice (day 0 and day 4) with chelerythrine, chelerythrine and 20 Gy (5 Gy/Day) or 20 Gy alone and excised on day 7, fixed in 10% neutral buffered formalin. Tumors were then trimmed and processed in a Tissue Tek II Tissue Processor. Tissues were embedded in paraffin, sectioned and stained with hematoxylin and eosin or with […] of DAPI (4',6-iamidino-2-phenylindole, Sigma D9542, 1 μg/ml in PBT (PBS+1% Triton X-100)), followed by examination for apoptosis and necrosis by light microscopy.
# In contrast, 1/16 of the radiation+buffer and 13/43 of the chelerythrine only treated animals regressed to less than 10% of the initial tumor volume. […] Representative sections of non-necrotic areas of tumors were stained with DAPI to detect nuclear changes of apoptosis. Tumor sections were taken at day 7 following treatment with 2 injections of chelerythrine alone, 20 Gy alone, 1 injection of chelerythrine and 20 Gy, or 2 treatments with chelerythrine and 20 Gy. Nuclei from non-necrotic areas of tumors treated with radiation alone appeared rounded and contained a smooth heterachromatin appearance. Few apoptotic nuclei as defined by chromatin margination and nuclear shrinkage could be detected in these areas.
# [6] = tested on: L-1210 tumor cells; conditions: l1210 cells; cited from earlier work
compound,measurement,setting,value
"COc1ccc2c(c[n+](C)c3c4cc5c(cc4ccc23)OCO5)c1OC [chelerythrine, 1,2-dimethoxy-12-methyl[1,3]benzodioxolo[5,6-c]phenanthridinium]","neutral sphingomyelinase activity, x-rays and chelerythrine",[1],about 200 % of control
same,"animals with regression to less than 10% of original tumor volume, combined treatment","[2]; 2 mg/kg chelerythrine x4 plus 50 Gy, day 31",20/41
same,"animals with regression to less than 10% of initial tumor volume, chelerythrine only","[2]; 2 mg/kg x4, day 31",13/43
same,"tumor regrowth, volume at day 30","[2]; chelerythrine alone, 2 mg/kg days 0, 3, 7, 10",174 % of the original volume
same,health of animals,"[3]; all treatment groups, throughout the xenograft study",appeared healthy throughout the study
same,LD50,"[3]; mouse, in vivo, ip",25 mg/kg
same,sphingomyelin mass,[4],about 55 % of control
same,inflammatory response and necrosis in epidermis and muscle,[5],did not increase this response
same,IC50,[6],53 nM
